Patent US20050032784A1, “Combination drug therapy for treating hypertension” (University of Florida Research Foundation, Inc., priority 2003, published 2005)

What was measured:
[1] = system: CAD patients with hypertension; test: INVEST trial: new diagnosis of diabetes; type: in vivo; settings: for HR of developing diabetes: vs NCAS not taking trandolapril or hydrochlorothiazide; for Effect of add-on medication on risk of diabetes: preliminary analyses adjusted for 5 baseline covariates and average daily dose
Excerpt: The primary outcome was the first occurrence of death (all-cause), nonfatal MI, or nonfatal stroke by intention-to-treat analysis. The MI and stroke definitions are detailed on the INVEST Web site. These 3 components individually were the main secondary outcomes. Additional outcomes included time to most serious event (ranked from death as most serious, to MI, to stroke as least serious), cardiovascular death (definite or presumed), angina, cardiovascular hospitalizations, blood pressure control, cancer, Alzheimer disease, Parkinson disease, and gastrointestinal tract bleeding. Shortly after the study started, new information became available on the potential for ACE inhibitors to prevent or delay the onset of diabetes. Accordingly, at the recommendation of the independent data safety and monitoring committee, new diagnosis of diabetes was added as an outcome early in the recruitment phase of the study.
Of the 8098 CAS patients without diabetes at entry, 569 (7.03%) were diagnosed as having diabetes during follow-up. Of the 8078 NCAS patients without diabetes at entry, 665 (8.23%) were diagnosed as having diabetes during follow-up (RR, 0.85; 95% CI, 0.77-0.95). Patients in the CAS group were also less likely to die or develop diabetes compared with patients in the NCAS group (1050 [12.97%] vs 1177 [14.57%]; RR, 0.89; 95% CI, 0.82-0.96) and less likely to have an event in the primary outcome cluster or develop diabetes (1185 [14.63%] vs 1313 [16.25%]; RR, 0.90; 95% CI, 0.84-0.97). To explore possible explanations for reduced risk of diabetes, we conducted preliminary analyses adjusting for the 5 pre-specified baseline covariates (age, race, sex, prior MI, and prior heart failure) and included factors for average daily dose of add-on medication (trandolapril and/or hydrochlorothiazide). […] A 2-mg dose of trandolapril was associated with a HR of 0.86 (95% CI, 0.74-1.00) and a 4-mg dose was associated with a HR of 0.77 (95% CI, 0.62-0.96). In the NCAS group, a 2-mg dose of trandolapril was associated with a HR of 0.99 (95% CI, 0.90-1.08) and a 4-mg dose was associated with a HR of 0.98 (95% CI, 0.82-1.18). […] Compared with those in the NCAS group not taking either trandolapril or hydrochlorothiazide, the addition of 12.5 mg of hydrochlorothiazide was associated with a HR of 1.17 (95% CI, 1.09-1.25) and 25 mg of hydrochlorothiazide was associated with a HR of 1.36 (95% CI, 1.18-1.57).

[2] = system: hypertensive patients randomized to the calcium antagonist strategy; test: INVEST subanalysis: BP reduction by addition of HCTZ to verapamil SR/trandolapril; type: in vivo
Protocol: Subanalysis Design: INVEST afforded an opportunity to analyze unique and specific combinations of antihypertensive drugs due to the data accumulated for prescription date, drug, regimen, and dose. One subanalysis was performed to evaluate the incremental benefit of BP reduction by the addition of HCTZ to various dose combinations of verapamil SR and trandolapril in patients randomized to the calcium antagonist strategy. […]
Patients who received the verapamil SR/trandolapril combination as their first randomized drug prescription in INVEST, and who received no other drug prescription or gap in medication until their first HCTZ prescription added to the initial verapamil SR/trandolapril combination dose, were selected for this subgroup analysis. […] Summary statistics for change from baseline for SBP and DBP to the last observation at each dose level for both the verapamil SR/trandolapril dual combination and the verapamil SR/trandolapril/HCTZ triple combination were analyzed. […] In this subanalysis the incremental effect of HCTZ on BP reduction was evaluated for any dose of HCTZ.

[3] = Group 1, added to verapamil SR/trandolapril 180/2 mg
[4] = Group 2, added to verapamil SR/trandolapril 240/2 mg
[5] = Group 3, added to verapamil SR/trandolapril 240/4 mg

SMILES | HR of developing diabetes ([1]; 25 mg, CAS group) | HR of developing diabetes ([1]; 25 mg, NCAS group) | HR of developing diabetes ([1]; addition of 12.5 mg, CAS group) | HR of developing diabetes ([1]; addition of 12.5 mg, NCAS group) | Effect of add-on medication on risk of diabetes [1] | Decrease of mean diastolic BP with the addition of HCTZ [2, 3] [mm Hg] | Decrease of mean systolic BP after the addition of HCTZ [2, 3] [mm Hg] | Decrease of mean diastolic BP with the addition of HCTZ [2, 4] [mm Hg] | Decrease of mean systolic BP after the addition of HCTZ [2, 4] [mm Hg] | Decrease of mean diastolic BP with the addition of HCTZ [2, 5] [mm Hg] | Decrease of mean systolic BP after the addition of HCTZ [2, 5] [mm Hg] | Incremental BP reduction with addition of HCTZ ([2]; each verapamil SR/trandolapril combination group, listed as HCTZ) | HR of developing diabetes ([1]; 2-mg dose, CAS group) | HR of developing diabetes ([1]; 2-mg dose, NCAS group) | HR of developing diabetes ([1]; 4-mg dose, CAS group) | HR of developing diabetes ([1]; 4-mg dose, NCAS group)
NS(=O)(=O)c1cc2c(cc1Cl)NCNS2(=O)=O [hydrochlorothiazide] | 1.28 | 1.36 | 1.11 | 1.17 | non-statistically significant increased risk of diabetes | 1.1 | 7.1 | 4.2 | 6.5 | 2.3 | 3.2 | clinically significant, incremental BP reduction |  |  |  | 
CCOC(=O)[C@H](CCc1ccccc1)N[C@@H](C)C(=O)N1[C@H](C(=O)O)C[C@H]2CCCC[C@@H]21 [trandolapril] |  |  |  |  | appeared to confer a protective effect in the CAS group |  |  |  |  |  |  |  | 0.86 | 0.99 | 0.77 | 0.98
